Values joined by “and” are separate entries in the source; they are usually repeats but may differ in a detail not shown here. Equal entries are not always repeated.
Experiments:
[1] = system: Pfu fusion DNA polymerase; assay: Endpoint PCR with Pfu fusion DNA polymerase, detergent/surfactant added to detergent-free PCR buffer; format: biochemical, Pyrococcus furiosus; settings: for detergent concentration at which amplifications generated product yields (FIG. 1): individual detergent in fusion PCR buffer, genomic DNA targets, no product in absence of detergent
Pfu DNA polymerase = biological target: T1, Pfu DNA polymerase (Pyrococcus furiosus, UniProt P61875); assay: Endpoint PCR with Pfu DNA polymerase, detergent/surfactant added to detergent-free PCR buffer; format: biochemical; settings: for product yields on addition of zwitterionic detergent to PCR buffer (FIG. 5): versus buffer lacking detergent, which failed to generate product
T1 sequence (P61875 1-775): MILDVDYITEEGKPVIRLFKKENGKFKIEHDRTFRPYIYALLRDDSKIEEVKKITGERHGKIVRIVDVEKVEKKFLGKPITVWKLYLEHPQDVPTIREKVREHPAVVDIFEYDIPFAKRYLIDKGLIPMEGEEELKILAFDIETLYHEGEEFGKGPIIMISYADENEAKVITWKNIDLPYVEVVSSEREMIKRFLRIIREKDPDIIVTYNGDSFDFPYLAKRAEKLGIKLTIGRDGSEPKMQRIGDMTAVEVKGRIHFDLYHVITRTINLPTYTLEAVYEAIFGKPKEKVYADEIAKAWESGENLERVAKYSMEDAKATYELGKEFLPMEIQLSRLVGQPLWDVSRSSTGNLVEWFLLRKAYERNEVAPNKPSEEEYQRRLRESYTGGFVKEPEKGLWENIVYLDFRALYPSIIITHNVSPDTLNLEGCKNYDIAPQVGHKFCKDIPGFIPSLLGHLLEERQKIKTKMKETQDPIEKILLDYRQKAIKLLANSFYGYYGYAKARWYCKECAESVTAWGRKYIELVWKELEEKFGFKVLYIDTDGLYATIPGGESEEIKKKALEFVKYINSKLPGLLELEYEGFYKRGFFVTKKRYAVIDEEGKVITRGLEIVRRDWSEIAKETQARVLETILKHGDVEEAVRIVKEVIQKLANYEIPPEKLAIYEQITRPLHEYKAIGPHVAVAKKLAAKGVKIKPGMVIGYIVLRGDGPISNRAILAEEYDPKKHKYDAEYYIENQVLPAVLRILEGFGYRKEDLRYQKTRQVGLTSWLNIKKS
Procedure: Pfu (exo+ and exo−) fusion DNA polymerase (e.g., as described in U.S. patent application Ser. No.: 11/488,535, filed Jul. 17, 2006, and herein incorporated by reference in its entirety), cPfu DNA polymerase (Stratagene catalog #600154), and PEF were purified using standard production protocols (no detergent present), except that non-ionic detergents were omitted from the final storage buffers. Enzymes were stored at −20° C. in 50 mM Tris-HCl (pH 8.2), 0.1 mM EDTA, 1 mM DTT, and 50% glycerol. DNA polymerase storage buffers were additionally supplemented with one or more zwitterionic detergents, in percentages (v/v) ranging from 0.05% to 0.5%.
PCR reaction buffers were prepared without non-ionic detergents (“DF buffer”, detergent-free buffer). For example, 1× cPfu DF-buffer contains 10 mM KCl, 10 mM (NH4)2SO4, 20 mM Tris HCl (pH 8.8), 2 mM MgSO4, and 100 ug/ml BSA. Detergent-free versions of Pfu fusion buffers were also prepared, and consisted of: 40 mM Tris-SO4 (pH 10), 15 mM K2SO4, 8 mM (NH4)2SO4, 2 mM MgSO4 (1× Pfu fusion DF-buffer I) or 30 mM Tris-SO4 (pH 10), 40 mM K2SO4, 1.5 mM (NH4)2SO4, 2 mM MgSO4 (1× Pfu fusion DF-buffer II).
PCR reaction buffers were supplemented with 0.1% Triton X100 (non-ionic detergent) or with one or more zwitterionic detergents or non-detergent surfactants. For example, zwitterionic detergents CHAPS, CHAPSO, 3-10, and 3-12 were obtained from AnaTrace, Inc. (Maumee, Ohio) and added to DF-buffers in percentages (v/v) ranging from 0.05% to 0.5%. The non-detergent surfactant, Surfynol 465, was purchased from Air Products and used in a similar fashion.
For the 0.9 kb and 6 kb systems, PCR reactions (50 ul) were conducted with 40 ng cPfu DNA polymerase in IX cPfu DF-buffer or with 28 ng or 224 ng Pfu fusion DNA polymerase in 1× Pfu fusion DF-buffer I or DF-buffer II, respectively. PCR reactions also contained 2 U/50 ul Pyrococcus furiosus dUTPase (PEF), 100 ng of human genomic DNA, 250 uM each dNTP, and 100 ng of each primer. For the 9 kb system, PCR reactions (50 ul) consisted of 80 ng Pfu, 1.5× cPfu DF-buffer, 2U Pyrococcus furiosus dUTPase (PEF), 200 ng of human genomic DNA, 500 uM each dNTP, and 200 ng of each primer. PCR reaction buffers were supplemented with 0.1% Triton X100 or with zwitterionic detergent(s).

[2] = system: Pfu and Pfu fusion DNA polymerase; assay: Endpoint PCR, enhancing detergents and detergent combinations (Table 2); format: biochemical, Pyrococcus furiosus; settings: for Effective range, Detergent 1 (single detergent) / Optimal range, Detergent 1 (single detergent): endpoint PCR, detergent alone
[3] = system: Pfu fusion DNA polymerase; assay: SYBR Green QPCR with Pfu fusion DNA polymerase; format: biochemical, Pyrococcus furiosus; settings: for Effective range, concentration of each detergent in combination, SYBR Green QPCR: combination CHAPS (0.1%) + Anz. 3-10 (0.02-0.15%); for Optimal range, concentration of each detergent in combination, SYBR Green QPCR: combination CHAPS (0.1%) + Anz. 3-10 (0.05-0.15%); for Effective range, Detergent 1 (single detergent), SYBR Green QPCR / Optimal range, Detergent 1 (single detergent), SYBR Green QPCR: detergent alone
Procedure: QPCR reactions contained DNA or cDNA template, varying amounts of primer (see Table 3 below), 300 uM each dNTP, 4 ng/ul exo Pfu fusion, 6 ng/ul hot start IgG, 0.4ng/ul single-stranded DNA-binding protein, 1× Pfu fusion DF-buffer II (pH 9), 4% DMSO, and 8% glycerol. QPCR reactions were supplemented with 0.1% Triton X100 or zwitterionic detergent, and with 0.5× SYBR Green (Molecular Probes S-7567). Reactions were cycled on the MX3000P Real-Time PCR System using the following conditions: (1 cycle) 95° C. 5 min; (40 cycles) 95° C. 10 sec, 60° C. 30 sec.

[4] = system: Pfu fusion DNA polymerase; assay: Accelerated stability study of Pfu fusion DNA polymerase in storage buffer, residual activity by 0.9 kb PCR; format: biochemical, Pyrococcus furiosus; settings: detergent in storage buffer
Procedure: Accelerated stability studies were performed to illustrate the stabilizing effects of zwitterionic detergents. Pfu fusion DNA polymerase was purified in the absence of detergents and then diluted to 28 ng/ul in storage buffer lacking detergent or storage buffers containing either conventional non-ionic detergent (0.1% Igepal/0.1% Triton X100) or various zwitterionic detergents. Protein samples were stored at −20° C. or were heated at 95° C. for varying lengths of time. Residual activity was assayed by amplifying a 0.9 kb genomic target in PCR in fusion DF-buffer supplemented with either 0.1% Triton X100 or 0.1% CHAPSO/0.1% Anzergent 3-12.

[5] = 0.05% of the individual detergent
[6] = combination CHAPS (0.05, 0.1%) + Anz. 3-10 (0.1-0.5%)
[7] = combination CHAPS (0.05%) + Anz. 3-12 (0.05-0.3%)
[8] = combination CHAPS (0.05%) + Anz. 3-12 (0.05-0.5%)
[9] = combination CHAPS (0.1%) + Anz. 3-12 (0.05-0.5%)

Row | SMILES | detergent concentration at which amplifications generated product yields (FIG. 1) [1] | product yields on addition of zwitterionic detergent to PCR buffer (FIG. 5) (Pfu DNA polymerase) | Effective range, Detergent 1 (single detergent) [2] | Optimal range, Detergent 1 (single detergent) [2] | Effective range, concentration of each detergent in combination, SYBR Green QPCR [3] | Optimal range, concentration of each detergent in combination, SYBR Green QPCR [3] | Effective range, Detergent 1 (single detergent), SYBR Green QPCR [3] | Optimal range, Detergent 1 (single detergent), SYBR Green QPCR [3] | Optimal range, concentration of each detergent in combination [2, 7] | Effective range, concentration of each detergent in combination [2, 8] | Effective range, concentration of each detergent in combination [2, 9] | Optimal range, concentration of each detergent in combination [2, 9] | effect on stability of Pfu fusion DNA polymerase (FIG. 6) [4] | other results
1 | CCCCCCCCCC[N+](C)(C)CCCS(=O)(=O)[O-] [Anzergent 3-10, n-Decyl-N,N-dimethyl-3-ammonio-1-propanesulfonate] | 0.4-0.8% | dramatically improved | Anz. 3-10 (0.4-0.8%) | Anz. 3-10 (0.4-0.8%) | Anz. 3-10 (0.02-0.15%) | Anz. 3-10 (0.05-0.15%) | Anz. 3-10 (0.1-0.3%) | Anz. 3-10 (0.2%) |  |  |  |  |  | PCR amplification with detergent alone (FIG. 2) [1, 5]: little amplification; detergent concentration with favorable result on PCR amplification (FIG. 2) ([1]; individual detergent added to the reaction): 0.4% and 0.8%; Effective range, concentration of each detergent in combination [2, 6]: Anz. 3-10 (0.1-0.5%); Optimal range, concentration of each detergent in combination [2, 6]: Anz. 3-10 (0.1-0.5%); Optimal range, concentration of each detergent in combination ([2]; combination CHAPSO (0.1%) + Anz. 3-10 (0.05-0.4%)): Anz. 3-10 (0.05-0.4%); Effective range, concentration of each detergent in combination ([2]; combination CHAPSO (0.1%) + Anz. 3-10 (0.05-0.5%)): Anz. 3-10 (0.05-0.5%)
2 | CCCCCCCCCCCC[N+](C)(C)CCCS(=O)(=O)[O-] [Anzergent 3-12, n-Dodecyl-N,N-dimethyl-3-ammonio-1-propanesulfonate] | 0.1-0.2% | dramatically improved | Anz. 3-12 (0.1-0.4%) | Anz. 3-12 (0.1-0.2%) |  |  | Anz. 3-12 (0.1-0.2%) | Anz. 3-12 (0.15-0.2%) | Anz. 3-12 (0.05-0.3%) | Anz. 3-12 (0.05-0.5%) | Anz. 3-12 (0.05-0.5%) | Anz. 3-12 (0.05-0.5%) | enhance the stability | PCR product with detergent alone (FIG. 3) [1, 5]: did not show observable levels of PCR product; effectiveness relative to CHAPS and Anzergent 3-10 (FIG. 5) (Pfu DNA polymerase; CHAPSO 0.05-0.2%, Anzergent 3-12 0.1-0.2%, in PCR buffer): somewhat more effective; Effective range, concentration of each detergent in combination ([2]; combination CHAPSO (0.05%, 0.1%) + Anz. 3-12 (0.05-0.5%)): Anz. 3-12 (0.05-0.5%)
3 | C[C@H](CCC(=O)NCCC[N+](C)(C)CCCS(=O)(=O)[O-])[C@H]1CC[C@H]2[C@@H]3[C@H](O)C[C@@H]4C[C@H](O)CC[C@]4(C)[C@H]3C[C@H](O)[C@]12C [CHAPS] |  | dramatically improved | CHAPS (0.2-0.8%) | CHAPS (0.2-0.4%) | CHAPS (0.1%) | CHAPS (0.1%) | CHAPS (0.1-0.5%) | CHAPS (0.5%) | CHAPS (0.05%) | CHAPS (0.05%) | CHAPS (0.1%) | CHAPS (0.1%) | enhance the stability | Effective range, concentration of each detergent in combination ([2]; combination CHAPS (0.05-0.5%) + CHAPSO (0.05-0.3%)): CHAPS (0.05-0.5%); QPCR amplification efficiency, total fluorescence and Ct values versus 0.1% Triton X100 (FIG. 7) ([3]; 0.5% detergent): comparable; amplification efficiency, total fluorescence and Ct values (FIG. 8) ([3]; 0.5% detergent, aldolase and GDH gene targets): favorable

— patent US20080064071A1, “Zwitterionic detergents for the storage and use of DNA polymerases” (priority 2006, published 2008)
